In data set [1] the test system is Mycobacterium smegmatis 607. Description: Antimicrobial potency, cylinder agar plate method, Bleomycin A2 (copper-free base) assumed as 1000 U/mg. It counts as cell-based. Particulars: Mycobacterium smegmatis 607. As to the method:
1. Antimicrobial potency was assayed by a cylinder agar plate method on the basis of Bleomycin A2 (copper-free base) assumed as 1000 U/mg, using Mycobacterium smegmatis 607 as test organism.
^(1) Assayed by a cylinder-agar plate method using Mycobacterium
smegmatis 607 as test organism, the potency of bleomycin A2
(copper-free base) being assumed as 1000 unit/mg.
The resulting compound has 0.65 of Rf value of the Silica gel thin layer chromatograph (CH3 OH: 10 %-CH3 COONH4 : 10 %-NH4 OH = 10 : 9 : 1) and 0.53 of Rf value of the Avicel thin layer chromatography (n-C3 H7 OH : pyridine : CH3 COOH : H2 O = 15 : 10 : 3 : 12) which are same with those of the 3-morpholinopropylaminobleomycin. The antimicrobial activity to Mycobacterium smegmatis 607 by the cylinder-agar plate method (the standard copper-free bleomycin A2 free base 1,000 U/mg) was 605 U/mg.

Data set [2] has as its system Ehrlich ascites carcinoma. Description: Antitumor activity and toxicity in ICR-SLC mouse inoculated with Ehrlich ascites carcinoma, i.p. for ten consecutive days. It counts as in vivo. Particulars: for Chemotherapeutic index (LD50/ED50): Tables 2 to 4; for Chemotherapeutic index (LD50/ED50) / LD50 (50 % lethal dose) / ED50 (50 % effective dose): i.p., for 10 days, 72000 min; for Prolongation effect on the survival period of ICR-SLC mouse inoculated with Ehrlich ascites carcinoma: as shown in Tables 2 and 3; for LD50 (50 % lethal dose): Behrens-Karber method; for ED50 (50 % effective dose): maximum dose level within the range of longevity ratio of 100 to 200; for Chemotherapeutic index: Table 5, ten consecutive days into peritoneal cavity, evaluated 50 days after beginning. As to the method: The phleomycin was administered for ten consecutive days into peritoneal cavity of a ICR-SLC mouse, into which Ehrlich ascites carcinoma had been inoculated. Fifty days after the beginning of the experiment, measurements were made for (1) the number of dead mouse owing to toxicity, (2) the number of survived mouse, (3) mean survival period in 50 days, and (4) the ratio of mean survival period to that of reference mouse multiplied by 100. The chemotherapeutic index was calculated from the values of ED50 (50 % effective dose) and LD50 (50 % lethal dose) which were obtained as given below.
ED50 value: The maximum dose level within the range of logevity ratio of 100 to 200.
LD50 value: Calculated according to Behrens-Karber method from the data of (1) and (2).
^(2) A bleomycin was administered for ten consecutive days into
peritoneal cavity of a ICR-SLC mouse, where Ehrlich ascites carcinoma had
been inoculated, and 50 days after the beginning of experiment the […]

The mark [3] stands for this setting: phleomycins of Table 1, Bleomycin A2 (copper-free base) = 1000 U/mg.
Setting [4] is: 0.19 mg/kg/day for 10 days i.p.
Setting [5] is: 0.39 mg/kg/day for 10 days i.p.
The mark [6] stands for this setting: 0.78 mg/kg/day for 10 days i.p.
[7] abbreviates: 1.56 mg/kg/day for 10 days i.p.
Setting [8] is: 3.12 mg/kg/day for 10 days i.p.
The mark [9] stands for this setting: 6.25 mg/kg/day for 10 days i.p.
The mark [10] stands for this setting: 12.5 mg/kg/day for 10 days i.p.
[11] abbreviates: 25.0 mg/kg/day for 10 days i.p.
[12] abbreviates: bleomycins of Table 5, bleomycin A2 (copper-free base) = 1000 unit/mg.

Consider 3-Morpholinopropylaminophleomycin, for which, in data set [1] (setting [3]), the Antimicrobial potency was found to be 474 unit/mg. The “Average longevity (mean survival period in 50 days)” value (“Average longevity” below) is 20.6 in data set [2] (setting [4]); 16.2 in data set [2] (setting [5]); 22.8 in data set [2] (setting [6]); 35.0 in data set [2] (setting [7]); 49.2 in data set [2] (setting [8]); 50.0 in data set [2] (setting [9]). Besides, the “Average longevity” value in data set [2] (setting [10]) is 39.2; in data set [2] (setting [11]), 26.2. In addition, the “Longevity ratio (mean survival period to that of reference mouse multiplied by 100)” value (from here on “Longevity ratio”) in data set [2] (setting [4]) is 167; in data set [2] (setting [5]), 133; in data set [2] (setting [6]), 187; in data set [2] (setting [7]), 287; in data set [2] (setting [8]), 403; in data set [2] (setting [9]), 410. Moreover, the entries for the “Longevity ratio” value in data set [2] (setting [10]) and in data set [2] (setting [11]) were 321 and 215, respectively. Moreover, the “Toxicity, number dead/total number” value in data set [2] (setting [4]), in data set [2] (setting [5]), in data set [2] (setting [6]), in data set [2] (setting [7]), in data set [2] (setting [8]) and in data set [2] (setting [9]) was 0/5 throughout. The “Toxicity, number dead/total number” value in data set [2] (setting [10]) was 2/5; in data set [2] (setting [11]) it was 5/5. Also, the “Viability (after 50 days), number survived/total number” value is on record as 0/5 in data set [2] (setting [4]); 0/5 in data set [2] (setting [5]); 0/5 in data set [2] (setting [6]); 2/5 in data set [2] (setting [7]); 5/5 in data set [2] (setting [8]); 5/5 in data set [2] (setting [9]). For the same compound, the “Viability (after 50 days), number survived/total number” value in data set [2] (setting [10]) is on record as 3/5; in data set [2] (setting [11]), 0/5. Besides, in data set [2], the “Chemotherapeutic index (LD50/ED50)” value came to 19.2. The “Prolongation effect on the survival period of ICR-SLC mouse inoculated with Ehrlich ascites carcinoma” value in data set [2] is given as “distinct prolongation effect”. For the same compound, the “LD50 (50 % lethal dose)” value in data set [2] is reported as 15.0 mg/kg/day. In addition, the “ED50 (50 % effective dose)” value in data set [2] was determined as 0.78 mg/kg/day. Also, the “Chemotherapeutic index compared with 3-morpholinopropylaminobleomycin” value in data set [2] (same terminal amine Y) is on record as “practically same order”.

Compound 3-N,N-Diethylaminopropylaminobleomycin showed an Antimicrobial potency in data set [1] (setting [12]) of 1036 Unit/mg. The same compound registered a Chemotherapeutic index in data set [2] of 34.5.

The compound 3-N,N-Dimethylaminopropylaminobleomycin showed an Antimicrobial potency in data set [1] (setting [12]) of 806 Unit/mg. The compound further returned a Chemotherapeutic index in data set [2] of 20.4.

In the case of “3-N-(1-Phenylethyl)aminopropylaminobleomycin”, the Antimicrobial potency in data set [1] (setting [12]) is 5320 Unit/mg. The same compound had a Chemotherapeutic index in data set [2] of 59.2.

In data set [1] (setting [12]), “3-N-(3-Hydroxypropyl)aminopropylaminobleomycin” showed an Antimicrobial potency of 1021 Unit/mg. The compound also had a Chemotherapeutic index in data set [2] of 29.6.

Compound 3-N-Cyclohexylaminopropylaminobleomycin gave an Antimicrobial potency in data set [1] (setting [12]) of 6560 Unit/mg. This compound also showed a Chemotherapeutic index in data set [2] of 16.3.

Take 3-Piperidinopropylaminobleomycin: the Antimicrobial potency in data set [1] (setting [12]) was determined as 1257 Unit/mg. This compound showed a Chemotherapeutic index in data set [2] of 14.4.

Consider 3-Pyrrolidinopropylaminobleomycin, for which the Antimicrobial potency in data set [1] (setting [12]) is listed as 1066 Unit/mg. In data set [2], this compound returned a Chemotherapeutic index of 19.2.

On to “3-S,S-Dimethylmercaptopropylaminophleomycin”, for which the Antimicrobial potency in data set [1] (setting [3]) was 865 unit/mg. Further, the “Average longevity” value in data set [2] (setting [4]) is listed as 18.0; in data set [2] (setting [5]), 21.0; in data set [2] (setting [6]), 29.0; in data set [2] (setting [7]), 36.8; in data set [2] (setting [8]), 44.0; in data set [2] (setting [9]), 33.8. Moreover, the “Average longevity” value in data set [2] (setting [10]) was 13.0; in data set [2] (setting [11]), 8.6. For the same compound, the “Longevity ratio” value in data set [2] (setting [4]) turned out to be 123; in data set [2] (setting [5]) it was 144; in data set [2] (setting [6]), 199; in data set [2] (setting [7]) it was 252; in data set [2] (setting [8]), 301; in data set [2] (setting [9]), 232. Moreover, the “Longevity ratio” value in data set [2] (setting [10]) turned out to be 89; in data set [2] (setting [11]), 59. Further, the “Toxicity, number dead/total number” value in data set [2] (setting [4]) is 0/5; in data set [2] (setting [5]) it was 0/5; in data set [2] (setting [6]), 0/5; in data set [2] (setting [7]) it was 0/5; in data set [2] (setting [8]), 0/5; in data set [2] (setting [9]), 3/5. In addition, the “Toxicity, number dead/total number” value in data set [2] (setting [10]) and in data set [2] (setting [11]) was 5/5 each time. Besides, the “Viability (after 50 days), number survived/total number” value in data set [2] (setting [4]) is given as 0/5; in data set [2] (setting [5]) it was 0/5; in data set [2] (setting [6]), 2/5; in data set [2] (setting [7]), 3/5; in data set [2] (setting [8]), 4/5; in data set [2] (setting [9]), 1/5. For the same compound, the “Viability (after 50 days), number survived/total number” value in data set [2] (setting [10]) and in data set [2] (setting [11]) was 0/5 each time. The “Chemotherapeutic index (LD50/ED50)” value in data set [2] stood at 8.5. Further, the “Prolongation effect on the survival period of ICR-SLC mouse inoculated with Ehrlich ascites carcinoma” value in data set [2] is reported as “distinct prolongation effect”. In data set [2], the “LD50 (50 % lethal dose)” value amounted to 6.6 mg/kg/day. For the same compound, the “ED50 (50 % effective dose)” value in data set [2] is 0.78 mg/kg/day.

In turn, “3-[3-N-(1-Phenylethyl)aminopropylamino]propylaminobleomycin” registered an Antimicrobial potency in data set [1] (setting [12]) of 9470 Unit/mg. This compound also returned a Chemotherapeutic index in data set [2] of 18.1.

In the case of `Cc1c(N)nc(C(CC(N)=O)NCC(N)C(N)=O)nc1C(=O)NC(C(=O)NC(C)C(O)C(C)C(=O)NC(C(=O)NCCc1nc(-c2nc(C(=O)NCCC[S+](C)C)cs2)cs1)C(C)O)C(OC1OC(CO)C(O)C(O)C1OC1OC(CO)C(O)C(OC(N)=O)C1O)c1cnc[nH]1` (stereo not drawn) [3-S,S-Dimethylmercaptopropylaminobleomycin], the Antimicrobial potency in data set [1] (setting [12]) came out at 920 Unit/mg. The compound also returned a Chemotherapeutic index in data set [2] of 12.0.

The values above are taken from patent publication US3984390A, “Novel process for producing phleomycin group antibiotics” (Zaidan Hojin Biseibutsu Kagaku Kenkyu Kai, priority 1972, dated 1976).
